According to US20130112218A1, “USE OF ELLAGIC ACID AS AN ANTI-DANDRUFF AGENT” (priority 2010, published 2013):

What was measured:
[1] = test system: scalps with dandruff displaying an excessive proliferation of yeasts of the Malassezia genus; assay: Test of effectiveness in a shampoo; assay type: in vivo; settings: ellagic acid 1% by weight in shampoo B, rinsed out, twice a week for four weeks; 21 individuals with dandruff
Description: The shampoo B according to the invention was prepared according to the following table. The amounts are indicated as percent by weight of active material (A.M.) relative to the total weight of the composition. The study was carried out on a group of 21 individuals who had scalps with dandruff displaying an excessive proliferation of yeasts of the Malassezia genus. After two weeks of neutral shampoo, the shampoo composition B according to the invention was applied to the scalp for each individual. The composition was then rinsed out with water. This anti-dandruff treatment method was repeated twice a week for four weeks.

[2] = test system: yeasts of the Malassezia genus; assay: Test of effectiveness in an aqueous-alcoholic gel by leave-in application; assay type: in vivo; settings: ellagic acid 0.5% by weight in aqueous-alcoholic gel A, two applications per week, after one week of treatment, 25 individuals with dandruff, corneodisc count, placebo 29%
Description: The aqueous-alcoholic gel for leave-in use A according to the invention was prepared according to the following table. The amounts are indicated as percent by weight of active material (A.M.) relative to the total weight of the composition. The study was carried out on a group of 25 individuals who had scalps with dandruff displaying an excessive proliferation of yeasts of the Malassezia genus. After two weeks of neutral shampoo, the individuals were treated with gel A of the invention or with an equal amount of a placebo comparative composition (identical composition without ellagic acid), at a rate of two applications per week. The yeasts per unit surface area were counted using a corneodisc sample of squamae.

O=c1oc2c(O)c(O)cc3c(=O)oc4c(O)c(O)cc1c4c23 [ellagic acid, 2,3,7,8-tetrahydroxy(1)benzopyrano(5,4,3-cde)(1)benzopyran-5,10-dione]
anti-dandruff effectiveness [1]: clear anti-dandruff effectiveness
reduction in the number of Malassezia yeasts present on the scalp [2]: 56%
